# Test results taken from BindingDB's records for doi:10.1021/acs.jmedchem.7b01322 (National Health Research Institutes, 2018).
# Experiment: Antagonist activity at CXCR4 in human CCRF-CEM cells assessed as inhibition of CXCL12-induced CXCR4+ cell migration pre-incubated for 10 mins before CXCL12 addition and measured after 2.5 hrs by flow cytometric analysis
structure (smiles),measurement,value
Cc1cc(NC2CCN(C(=O)CCNCC(=O)O)CC2)nc(NCc2cn(CCCNCCCNC3CCCCC3)nn2)n1,EC50,14 nM
